Assay results taken from patent publication US20080274892A1, “Novel Haloalkylsulfonanilide Derivative, Herbicide, and Method of Use Thereof” (priority 2005, published 2008).

How the values were obtained:
barnyard glass = assay: Test Example 2: herbicidal efficacy on rice paddy weeds post-emergence; assay type: in vivo, Echinochloa crus-galli; conditions: post-emergence, one leaf stage, 21 days after treatment
Summary of the method: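 Efficacy on paddy weeds was scored on a 0 to 4 growth-inhibition scale: 4 for 90%-100%, 3 for 70%-89%, 2 for 40%-69%, 1 for 1%-39% and 0 for 0%. Barnyard glass was grown in clay loam in 75 cm^2 pots under 5 cm of water in a hot house. It was compared with untreated pots 21 days after treatment.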

bulrush [1] = assay: as above; assay type: in vivo, Scirpus juncoides; conditions: post-emergence, one leaf stage, 21 days after treatment
false pimpernel [2] = assay: as above; assay type: in vivo, Lindernia pyxidaria; conditions: post-emergence, one leaf stage, 21 days after treatment
[3] = tested on: paddy rice plant (cultivar: Nihonbare); assay: Test Example 3: phytotoxicity test for transplanted paddy rice plant; assay type: in vivo; conditions: transplanted rice, 21 days after treatment
Summary of the method: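 Clay loam soil was placed in a 75 cm^2 plastic pot and flooded to a water depth of 5 cm. Two Nihonbare paddy rice plants at the two-leaf stage were transplanted 1 cm deep and grown in a hot house. After treatment, pots stayed in the hot house for 21 days, and phytotoxicity was then graded against an untreated control.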

false pimpernel [4] = assay: Test Example 1: herbicidal efficacy on rice paddy weeds pre-emergence; assay type: in vivo, Lindernia pyxidaria; conditions: 21 days
bulrush [5] = assay: as above; assay type: in vivo, Scirpus juncoides; conditions: 21 days
[6] = dosage 1000 g/ha, treated 5 days after transplantation

| Structure (SMILES) | Burnyard grass post (herbicidal efficacy grade) (barnyard glass; dosage 1000 g/ha) | Bulrush post (herbicidal efficacy grade) (bulrush [1]; dosage 1000 g/ha) | False pimpernel post (herbicidal efficacy grade) (false pimpernel [2]; dosage 1000 g/ha) | Phytotoxicity to paddy rice [3, 6] | False pimpernel pre (herbicidal efficacy grade) (false pimpernel [4]; dosage 1000 g/ha) | Bulrush pre (herbicidal efficacy grade) (bulrush [5]; dosage 1000 g/ha) | Burnyard grass post (herbicidal efficacy grade) (barnyard glass; dosage 300 g/ha) | Bulrush post (herbicidal efficacy grade) (bulrush [1]; dosage 300 g/ha) | False pimpernel post (herbicidal efficacy grade) (false pimpernel [2]; dosage 300 g/ha) | Phytotoxicity to paddy rice ([3]; dosage 300 g/ha) | False pimpernel pre (herbicidal efficacy grade) (false pimpernel [4]; dosage 300 g/ha) | Bulrush pre (herbicidal efficacy grade) (bulrush [5]; dosage 300 g/ha) | also measured |
| --- | --- | --- | --- | --- | --- | --- | --- | --- | --- | --- | --- | --- | --- |
| CC(C)COC(=O)N(c1ccccc1CN1CC(c2ccccc2)OC1=O)S(=O)(=O)C(F)(F)F (stereo not drawn) [Compound 1-42] | 4 (90%-100% of herbicidal efficacy or phytotoxicity) | 3 (70%-89% of herbicidal efficacy or phytotoxicity) | 3 (70%-89% of herbicidal efficacy or phytotoxicity) | 0 (0% of herbicidal efficacy or phytotoxicity) | 4 (90%-100% of herbicidal efficacy or phytotoxicity) | 3 (70%-89% of herbicidal efficacy or phytotoxicity) |  |  |  |  |  |  |  |
| O=C1OC2(CCCCC2)CN1Cc1ccccc1NS(=O)(=O)C(F)(F)F [Compound 1-45] | 4 (90%-100% of herbicidal efficacy or phytotoxicity) | 4 (90%-100% of herbicidal efficacy or phytotoxicity) | 4 (90%-100% of herbicidal efficacy or phytotoxicity) | 2 (40%-69% of herbicidal efficacy or phytotoxicity) | 4 (90%-100% of herbicidal efficacy or phytotoxicity) | 4 (90%-100% of herbicidal efficacy or phytotoxicity) |  |  |  |  |  |  |  |
| O=C1OC2CCCCC2N1Cc1ccccc1NS(=O)(=O)C(F)(F)F (stereo not drawn) [Compound 1-47] | 4 (90%-100% of herbicidal efficacy or phytotoxicity) | 4 (90%-100% of herbicidal efficacy or phytotoxicity) | 4 (90%-100% of herbicidal efficacy or phytotoxicity) | 2 (40%-69% of herbicidal efficacy or phytotoxicity) | 4 (90%-100% of herbicidal efficacy or phytotoxicity) | 4 (90%-100% of herbicidal efficacy or phytotoxicity) |  |  |  |  |  |  |  |
| CC[C@H]1CN(Cc2ccccc2NS(=O)(=O)C(F)(F)F)C(=O)O1 [Compound 1-55] | 4 (90%-100% of herbicidal efficacy or phytotoxicity) | 4 (90%-100% of herbicidal efficacy or phytotoxicity) | 4 (90%-100% of herbicidal efficacy or phytotoxicity) | 1 (1%-39% of herbicidal efficacy or phytotoxicity) | 4 (90%-100% of herbicidal efficacy or phytotoxicity) | 4 (90%-100% of herbicidal efficacy or phytotoxicity) |  |  |  |  |  |  |  |
| CC[C@H]1CN(Cc2ccccc2N(C(=O)OCC(C)C)S(=O)(=O)C(F)(F)F)C(=O)O1 [Compound 1-56] |  |  |  |  |  |  | 4 (90%-100% of herbicidal efficacy or phytotoxicity) | 4 (90%-100% of herbicidal efficacy or phytotoxicity) | 3 (70%-89% of herbicidal efficacy or phytotoxicity) | 1 (1%-39% of herbicidal efficacy or phytotoxicity) | 4 (90%-100% of herbicidal efficacy or phytotoxicity) | 4 (90%-100% of herbicidal efficacy or phytotoxicity) |  |
| CC(C)(C)C1(C)CN(Cc2ccccc2NS(=O)(=O)C(F)(F)F)C(=O)O1 (stereo not drawn) [Compound 1-69] |  |  |  |  |  |  | 3 (70%-89% of herbicidal efficacy or phytotoxicity) | 4 (90%-100% of herbicidal efficacy or phytotoxicity) | 4 (90%-100% of herbicidal efficacy or phytotoxicity) | 1 (1%-39% of herbicidal efficacy or phytotoxicity) | 4 (90%-100% of herbicidal efficacy or phytotoxicity) | 4 (90%-100% of herbicidal efficacy or phytotoxicity) |  |
| CC(C)COC(=O)N(c1ccccc1CN1CC(C)(C(C)(C)C)OC1=O)S(=O)(=O)C(F)(F)F (stereo not drawn) [Compound 1-70] | 4 (90%-100% of herbicidal efficacy or phytotoxicity) | 4 (90%-100% of herbicidal efficacy or phytotoxicity) | 4 (90%-100% of herbicidal efficacy or phytotoxicity) | 1 (1%-39% of herbicidal efficacy or phytotoxicity) | 4 (90%-100% of herbicidal efficacy or phytotoxicity) | 4 (90%-100% of herbicidal efficacy or phytotoxicity) |  |  |  |  |  |  |  |
| CC1(C)OC(=O)N(Cc2ccccc2NS(=O)(=O)C(F)(F)F)C1(C)C [Compound 1-73] | 4 (90%-100% of herbicidal efficacy or phytotoxicity) | 4 (90%-100% of herbicidal efficacy or phytotoxicity) | 4 (90%-100% of herbicidal efficacy or phytotoxicity) | 4 (90%-100% of herbicidal efficacy or phytotoxicity) | 4 (90%-100% of herbicidal efficacy or phytotoxicity) | 4 (90%-100% of herbicidal efficacy or phytotoxicity) |  |  |  |  |  |  |  |
| CC(C)COC(=O)N(c1ccccc1CN1C(=O)OC(C)(C)C1(C)C)S(=O)(=O)C(F)(F)F [Compound 1-74] | 4 (90%-100% of herbicidal efficacy or phytotoxicity) | 4 (90%-100% of herbicidal efficacy or phytotoxicity) | 4 (90%-100% of herbicidal efficacy or phytotoxicity) | 4 (90%-100% of herbicidal efficacy or phytotoxicity) | 4 (90%-100% of herbicidal efficacy or phytotoxicity) | 4 (90%-100% of herbicidal efficacy or phytotoxicity) |  |  |  |  |  |  |  |
| CC1N(Cc2ccccc2NS(=O)(=O)C(F)(F)F)C(=O)OC1(C)C (stereo not drawn) [Compound 1-96] | 4 (90%-100% of herbicidal efficacy or phytotoxicity) | 4 (90%-100% of herbicidal efficacy or phytotoxicity) | 4 (90%-100% of herbicidal efficacy or phytotoxicity) | 3 (70%-89% of herbicidal efficacy or phytotoxicity) | 4 (90%-100% of herbicidal efficacy or phytotoxicity) | 4 (90%-100% of herbicidal efficacy or phytotoxicity) |  |  |  |  |  |  |  |
| CCCCC1(C)CN(Cc2ccccc2N(C(=O)OC)S(=O)(=O)C(F)(F)F)C(=O)O1 (stereo not drawn) [Compound 1-128] |  |  |  |  |  |  |  |  |  |  |  |  | Burnyard grass post (herbicidal efficacy grade) (barnyard glass; dosage 100 g/ha): 3 (70%-89% of herbicidal efficacy or phytotoxicity); Bulrush post (herbicidal efficacy grade) (bulrush [1]; dosage 100 g/ha): 3 (70%-89% of herbicidal efficacy or phytotoxicity); False pimpernel post (herbicidal efficacy grade) (false pimpernel [2]; dosage 100 g/ha): 2 (40%-69% of herbicidal efficacy or phytotoxicity); Phytotoxicity to paddy rice ([3]; dosage 100 g/ha as printed in the table line): 1 (1%-39% of herbicidal efficacy or phytotoxicity); False pimpernel pre (herbicidal efficacy grade) (false pimpernel [4]; dosage 100 g/ha): 4 (90%-100% of herbicidal efficacy or phytotoxicity); Bulrush pre (herbicidal efficacy grade) (bulrush [5]; dosage 100 g/ha): 2 (40%-69% of herbicidal efficacy or phytotoxicity) |
| COCC1(C)CN(Cc2ccccc2NS(=O)(=O)C(F)(F)F)C(=O)O1 (stereo not drawn) [Compound 1-137] |  |  |  |  |  |  | 4 (90%-100% of herbicidal efficacy or phytotoxicity) | 4 (90%-100% of herbicidal efficacy or phytotoxicity) | 4 (90%-100% of herbicidal efficacy or phytotoxicity) | 2 (40%-69% of herbicidal efficacy or phytotoxicity) | 4 (90%-100% of herbicidal efficacy or phytotoxicity) | 4 (90%-100% of herbicidal efficacy or phytotoxicity) |  |
| COCC1(C)CN(Cc2ccccc2N(C(=O)OCC(C)C)S(=O)(=O)C(F)(F)F)C(=O)O1 (stereo not drawn) [Compound 1-138] | 4 (90%-100% of herbicidal efficacy or phytotoxicity) | 4 (90%-100% of herbicidal efficacy or phytotoxicity) | 4 (90%-100% of herbicidal efficacy or phytotoxicity) | 2 (40%-69% of herbicidal efficacy or phytotoxicity) | 4 (90%-100% of herbicidal efficacy or phytotoxicity) | 4 (90%-100% of herbicidal efficacy or phytotoxicity) |  |  |  |  |  |  |  |
| Cc1c(Cl)ccc(OC(C)C(=O)N(c2ccccc2CN2CC(C)(C)OC2=O)S(=O)(=O)C(F)(F)F)c1Cl (stereo not drawn) [Compound 1-139] |  |  |  |  |  |  | 3 (70%-89% of herbicidal efficacy or phytotoxicity) | 4 (90%-100% of herbicidal efficacy or phytotoxicity) | 4 (90%-100% of herbicidal efficacy or phytotoxicity) | 3 (70%-89% of herbicidal efficacy or phytotoxicity) | 4 (90%-100% of herbicidal efficacy or phytotoxicity) | 4 (90%-100% of herbicidal efficacy or phytotoxicity) |  |
| CC1(c2ccccc2)CN(Cc2ccccc2NS(=O)(=O)C(F)(F)F)C(=O)O1 (stereo not drawn) [Compound 1-140] |  |  |  |  |  |  | 2 (40%-69% of herbicidal efficacy or phytotoxicity) | 4 (90%-100% of herbicidal efficacy or phytotoxicity) | 4 (90%-100% of herbicidal efficacy or phytotoxicity) | 1 (1%-39% of herbicidal efficacy or phytotoxicity) | 4 (90%-100% of herbicidal efficacy or phytotoxicity) | 4 (90%-100% of herbicidal efficacy or phytotoxicity) |  |
